Measurements as given in patent US20190166840A1, “SUBSTITUTED PYRAZOLINYL DERIVATIVES, PROCESSES FOR THEIR PREPARATION AND THEIR USE AS HERBICIDES AND/OR PLANT GROWTH REGULATORS” (BAYER CROPSCIENCE AKTIENGESELLSCHAFT, priority 2016, published 2019).

How the values were obtained:
photosystem II (PS II) = biological target: T1, photosystem II (PS II) (Spinacia oleracea, UniProt P69560); assay: Activity determination of photosystem II (PS II) in thylakoid membranes, DCPIP reduction; assay type: biochemical; conditions: spinach thylakoid membranes, DCPIP 120 μM, 10 min at 22° C. with illumination
T1 construct: the chloroplasts were osmotically ruptured and the thylakoid membranes were then obtained by centrifugation; from tissue; host or cells: spinach leaves (thylakoid membrane preparation)
Protocol: Measurement of PS II Activity in Thylakoid Membranes
1. Preparation of the Thylakoid Membranes
Cooled fresh spinach leaves were comminuted and homogenized in 50 mM phosphate buffer, pH 6.8, 10 mM KCl, 0.34 M sucrose (sucrose buffer) (mixer, 1 g of plant material/ml). The homogenate was subsequently filtered through 4 layers of Miracloth and the chloroplasts were obtained by centrifugation: • 10 minutes (min) of centrifugation at 4400×g (4° C.). • The sediment was suspended in 25 ml of sucrose buffer and centrifuged for another 10 min at 4400×g (4° C.). • The sediment was then suspended in 40 ml of 50 mM phosphate buffer, pH 6.8, 10 mM KCl, without sucrose. • In this step, the chloroplasts were osmotically ruptured and the thylakoid membranes were then obtained by centrifugation (10 min, 4400×g, 4° C.). The membrane sediment was finally suspended in about 20 ml of 50 mM phosphate buffer, pH 6.8, 10 mM KCl. • After protein determination and activity determination, the membrane suspension was aliquoted and frozen in liquid nitrogen. The aliquots were stored at −80° C. Under these conditions, the photosystem II preparation is storage-stable for at least three months.
2. Activity Determination of the Photosystem II (PS II)
The electron transfer from PS II to an artificial electronic captor, 2,6-dichlorophenol-indophenol (DCPIP), is measured under the action of light. The concentration of the blue oxidized form of DCPIP can be determined spectraphotometrically at the wavelength l=595 nm. The enzyme-catalyzed reduction of DCPIP results in a colourless leuco form and thus to a decrease of absorption at 595 nm in the reaction batch, which is measured as a function of time.
The activity determination was carried out in microtiter plates (96 wells) in a reaction volume of 200 μl. 155 μl of dilute membrane suspension in 50 mM phosphate buffer, pH 6.8, 10 mM KCl were initially charged. Depending on the activity of the PS II preparation, the dilution was adjusted such that measurement of the decrease in absorption (λ=595 nm) was linear for at least 10 min.
Typical dilution series of the test compounds comprised 10 concentration steps in the range between 10^−9and 10^−5 M.
On each microtiter plate, a known PS II inhibitor, e.g. metribuzin, was used as standard for assessing the quality of the PS II test.
The reaction was initiated by addition of 40 μl DCPIP solution (600 μM in distilled water); the final concentration of DCPIP was 120 μM.
Absorption was measured over a period of 10 min at 22° C. and with illumination. For calculating the active compound concentration at which 50% of the enzyme activity is inhibited (IC50), the relative enzymatic activity (in %) was plotted as a function of the logarithm of the active compound concentration.

Setaria viridis = assay: Post-emergence herbicidal action, SETVI; assay type: in vivo; conditions: one-leaf stage, application rate 1280 g/ha, scored visually after about 3 weeks
Protocol: (§1) Post-Emergence Herbicidal Activity Seeds of mono- and dicotyledonous weed plants and crop plants were placed in sandy loam in wood fibre pots, covered with soil and then cultivated in a greenhouse under good growth conditions. Two to 3 weeks after sowing, the test plants were treated at the one-leaf stage, with the formulated compounds of the general formula (I) according to the invention being sprayed as an aqueous suspension or emulsion at an application rate of 600 l of water/ha (converted) with addition of 0.2% wetting agent, onto the green parts of the plants. After the test plants had been left to stand in the greenhouse for about 3 weeks under optimum growth conditions, the activity of the preparations was scored visually in percent in comparison to untreated controls. For example, 100% activity=the plants have died, 50% herbicidal activity or damage=plants reduced to 50% or plant material reduced by 50%, 0% activity=like control plants. […] Here, the herbicidal action of the compounds of the general formula (I) according to the invention was examined for the following harmful plants: SETVI=Setaria viridis The respective herbicidal action was in each case determined at the same point in time after application of the formulation in question, i.e. damage of the harmful plant in question in %. […]

Ipomoea purpurea = assay: Post-emergence herbicidal action, PHBPU; assay type: in vivo; conditions: one-leaf stage, application rate 1280 g/ha, scored visually after about 3 weeks
Protocol: as §1, with “PHBPU=Ipomoea purpurea” for “SETVI=Setaria viridis”

[1] = system: Polygonum convolvulus (=Fallopia convolvulus); assay: Post-emergence herbicidal action, POLCO; assay type: in vivo; conditions: one-leaf stage, application rate 1280 g/ha, scored visually after about 3 weeks
Protocol: as §1, with “POLCO=Polygonum convolvulus (=Fallopia convolvulus)” for “SETVI=Setaria viridis”

Viola tricolor = assay: Post-emergence herbicidal action, VIOTR; assay type: in vivo; conditions: one-leaf stage, application rate 1280 g/ha, scored visually after about 3 weeks
Protocol: as §1, with “VIOTR=Viola tricolor” for “SETVI=Setaria viridis”

**Q.** `CC1=C(C)C(O)N(C2=NN(Cc3ccccc3)C(C)(C)C2)C1=O` (stereo not drawn) [I.2-217] was tested. Which pI50 (photosystem II (PS II)) did it give?
**A.** 5.4

**Q.** For `CC1=C(C)C(O)N(C2=NN(c3ccccc3)C(C)C2)C1=O` (stereo not drawn) [I.2-321], which IC50 (photosystem II (PS II); read-out: pI50 (converted)) is on record?
**A.** 7.94 µM

**Q.** Which results are given for `CC1=C(C)C(O)N(C2=NN(c3ccccn3)C(C)C2)C1=O` (stereo not drawn) [I.2-432]?
**A.** Post-emergence herbicidal action SETVI, damage of the harmful plant (Setaria viridis): 80%; Post-emergence herbicidal action PHBPU, damage of the harmful plant (Ipomoea purpurea): 0%; Post-emergence herbicidal action POLCO, damage of the harmful plant [1]: 0%; Post-emergence herbicidal action VIOTR, damage of the harmful plant (Viola tricolor): 80%

**Q.** With `CC1=C(Cl)C(=O)N(C2=NN(c3ccccc3)C(C)C2)C1O` (stereo not drawn) [I.3-321] as the compound, how does the pI50 (photosystem II (PS II)) read?
**A.** 5.4

**Q.** For `CC1=C(Cl)C(=O)N(C2=NN(C)C(c3ccc(Cl)cc3)C2)C1O` (stereo not drawn) [I.3-1351], which pI50 (photosystem II (PS II)) is on record?
**A.** 5.5

**Q.** What does the source list for `CC1=C(Br)C(=O)N(C2=NN(c3ccccc3)CC2)C1O` (stereo not drawn) [I.8-621]?
**A.** pI50 (photosystem II (PS II)): 5.3; Post-emergence herbicidal action SETVI, damage of the harmful plant (Setaria viridis): 60%; Post-emergence herbicidal action PHBPU, damage of the harmful plant (Ipomoea purpurea): 90%; Post-emergence herbicidal action POLCO, damage of the harmful plant [1]: 90%; Post-emergence herbicidal action VIOTR, damage of the harmful plant (Viola tricolor): 80%

**Q.** For `CC1=C(Br)C(=O)N(C2=NN(C)C(c3ccccc3)C2)C1O` (stereo not drawn) [I.8-1126], which pI50 (photosystem II (PS II)) is on record?
**A.** 5.1

**Q.** Which pI50 (photosystem II (PS II)) does the source give for `CC1=C(Br)C(=O)N(C2=NN(C)C(c3ccc(Cl)cc3)C2)C1O` (stereo not drawn) [I.8-1351] here?
**A.** 5.7
